Consider 24 molecules from ChEMBL document CHEMBL6087403 (Bioorg Med Chem Lett, 2025).

The source made the active and inactive calls. No cut-off for these calls is given here.

The target of test [1] is Alpha glucosidase (Homo sapiens, UniProt O43451+P10253+P14410+Q2M2H8). Nature of the test: Inhibition of alpha-glucosidase (unknown origin). The test is classed as protein assay.
Test [2] is described as follows: Antioxidant activity assessed as DPPH radical scavenging activity incubated for 1 hr by spectrophotometric analysis. The test is classed as functional.

For `CC1=C(C(=O)[C@@H](C)c2ccccc2)C(c2ccccc2)NC(=S)N1` (some centres not stated), the IC50 (as a rule, the midpoint of a concentration-inhibition curve) in test [1] is 61.1 µM; in test [2], 67.8 µM.
Take `CCOC(=O)C1=C(C)n2nnnc2N(C)C1c1ccc(C)cc1.Cl.Cl` (configuration not stated): the results for the concentration for half-maximal inhibition (IC50) in test [1] and in test [2] were 61.1 µM and 68.2 µM, respectively.
On to `COC(=O)C1=C(C)NC(SC)N(C)C1c1ccccc1` (configuration not stated), for which the IC50 in test [1] was 84.2 µM; in test [2] it was 69.5 µM.
The matching figures for `CC1=C(C(=O)[C@H](C)c2ccccc2)C(c2ccccc2)NC(=S)N1` (some centres not stated): 76.2 µM and 69 µM.
For the molecule `CCOC(=O)C1=C(C)NC(SC)N(C)C1c1ccccc1` (configuration not stated), the results for the IC50 in test [1] and in test [2] were 24.2 µM and 21.4 µM, respectively.
As to `CCOC(=O)C1=C(C)NC(SC)N(C)C1c1ccc([N+](=O)[O-])cc1` (configuration not stated), the results for the IC50 in test [1] and in test [2] were 33.3 µM and 61.2 µM, respectively.
Turning to `CCOC(=O)C1=C(C)NC(NN)N(C)C1c1ccccc1.Cl.Cl` (configuration not stated), the half-inhibitory concentration (IC50) in test [1] is 31.1 µM; in test [2], 92.1 µM.
Take `COC(=O)C1=C(C)n2nnnc2N(C)C1c1ccccc1.Cl.Cl` (configuration not stated): the values for the IC50 in test [1] and in test [2] were 65.1 µM and 55.1 µM, respectively.
Turning to `COc1ccc(O)c(C(C)(C)C)c1`, in test [2], the IC50 stood at 44.2 µM.
Consider `CC1=C(C(=O)[C@@H](C)c2ccccc2)C(c2ccc(C)cc2)NC(=S)N1` (some centres not stated), for which the IC50 in test [1] was determined as 47.3 µM. In addition, the result in test [2] was inactive.
As to `CC1=C(C(=O)[C@H](C)c2ccccc2)C(c2ccccc2Cl)NC(=S)N1` (some centres not stated), the IC50 came out at 23.3 µM in test [1] and 31.2 µM in test [2].
The like results for `CCOC(=O)C1=C(C)NC(NN)N(C)C1c1ccc([N+](=O)[O-])cc1.Cl.Cl` (configuration not stated) were, in that order, 72.4 µM and 66 µM.
`CCOC(=O)C1=C(C)NC(SC)N(C)C1c1cccc(OC)c1OC` (configuration not stated): the IC50 is 35.9 µM in test [1] and 38.8 µM in test [2].
Regarding `CCOC(=O)C1=C(C)NC(NN)N(C)C1c1cccc(O)c1.Cl.Cl` (configuration not stated), the IC50 worked out at 62.7 µM in test [1] and 79.3 µM in test [2].
The like results for `CCOC(=O)C1=C(C)n2nnnc2N(C)C1c1cccc(O)c1.Cl.Cl` (configuration not stated) were, in that order, 45.6 µM and 49.2 µM.
The like results for `CC1=C(C(=O)[C@@H](C)c2ccccc2)C(c2ccccc2Cl)NC(=S)N1` (some centres not stated) were, in that order, 18.9 µM and 29.8 µM.
The matching figures for `CCOC(=O)C1=C(C)n2nnnc2N(C)C1c1ccccc1.Cl.Cl` (configuration not stated): 39.4 µM and 33.2 µM.
In turn, `CC1=C(C(=O)[C@H](C)c2ccccc2)C(c2ccc(C)cc2)NC(=S)N1` (some centres not stated) returned an IC50 in test [1] of 41.2 µM. Moreover, the outcome in test [2] was inactive.
With `CC1=C(C(=O)O)C(c2ccccc2Cl)NC(=S)N1` (configuration not stated), the IC50 was 12.5 µM in test [1] and 45.3 µM in test [2].
Consider `CC1=C(C(=O)O)C(c2ccccc2)NC(=S)N1` (configuration not stated), for which the IC50 was 89.5 µM in test [1] and 59.8 µM in test [2].
For `CCOC(=O)C1=C(C)NC(SC)N(C)C1c1cccc(O)c1` (configuration not stated), the values for the IC50 in test [1] and in test [2] were 21.5 µM and 29.5 µM, respectively.
The matching figures for `CC1=C(C(=O)O)C(c2ccc(C)cc2)NC(=S)N1` (configuration not stated): 39.2 µM and 90.8 µM.
As for `CCOC(=O)C1=C(C)NC(NN)N(C)C1c1ccc(C)cc1.Cl.Cl` (configuration not stated), the IC50 in test [1] came to 71.1 µM; in test [2], 85.1 µM.
Regarding `CCOC(=O)C1=C(C)NC(SC)N(C)C1c1ccc(C)cc1` (configuration not stated), the IC50 in test [1] was found to be 44.4 µM; in test [2], 87.3 µM.
